Measurements from publication PMC4286194 (Biochemical Journal, 2015).

Key:
S6K1 = S6K1 (Homo sapiens, UniProt P23443); assay: Kinase profiling; format: biochemical
PDGFRA = PDGFRA (Homo sapiens, UniProt P16234); assay: Kinase profiling; format: biochemical
LKB1 = target: T1, LKB1 (Homo sapiens, UniProt Q15831); assay: Kinase profiling; format: biochemical
T1 sequence (Q15831 1-433): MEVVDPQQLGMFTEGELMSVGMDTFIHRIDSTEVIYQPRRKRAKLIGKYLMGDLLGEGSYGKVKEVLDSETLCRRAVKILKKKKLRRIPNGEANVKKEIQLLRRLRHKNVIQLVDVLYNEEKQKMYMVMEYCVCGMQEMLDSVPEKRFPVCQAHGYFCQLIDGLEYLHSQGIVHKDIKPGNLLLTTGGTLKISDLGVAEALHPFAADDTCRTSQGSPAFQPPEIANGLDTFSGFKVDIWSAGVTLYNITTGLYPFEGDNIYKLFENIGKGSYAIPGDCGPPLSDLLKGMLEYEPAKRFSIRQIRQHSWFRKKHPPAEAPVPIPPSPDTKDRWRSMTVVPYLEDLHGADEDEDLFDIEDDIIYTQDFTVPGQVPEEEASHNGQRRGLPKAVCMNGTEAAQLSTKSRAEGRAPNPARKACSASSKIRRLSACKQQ
T1 sequence (Q7RTN6 1-431 partner): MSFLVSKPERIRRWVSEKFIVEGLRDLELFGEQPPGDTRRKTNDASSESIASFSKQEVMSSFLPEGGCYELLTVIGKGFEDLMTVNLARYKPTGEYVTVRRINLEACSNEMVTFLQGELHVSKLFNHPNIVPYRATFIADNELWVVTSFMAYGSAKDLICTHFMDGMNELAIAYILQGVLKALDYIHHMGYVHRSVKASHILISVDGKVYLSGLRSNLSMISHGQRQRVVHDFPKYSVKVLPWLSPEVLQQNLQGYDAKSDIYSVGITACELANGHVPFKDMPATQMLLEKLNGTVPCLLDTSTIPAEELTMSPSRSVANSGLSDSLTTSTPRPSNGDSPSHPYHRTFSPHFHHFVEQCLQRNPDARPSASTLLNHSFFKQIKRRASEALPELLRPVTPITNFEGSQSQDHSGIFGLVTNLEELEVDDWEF
T1 sequence (Q9Y376 1-341 partner): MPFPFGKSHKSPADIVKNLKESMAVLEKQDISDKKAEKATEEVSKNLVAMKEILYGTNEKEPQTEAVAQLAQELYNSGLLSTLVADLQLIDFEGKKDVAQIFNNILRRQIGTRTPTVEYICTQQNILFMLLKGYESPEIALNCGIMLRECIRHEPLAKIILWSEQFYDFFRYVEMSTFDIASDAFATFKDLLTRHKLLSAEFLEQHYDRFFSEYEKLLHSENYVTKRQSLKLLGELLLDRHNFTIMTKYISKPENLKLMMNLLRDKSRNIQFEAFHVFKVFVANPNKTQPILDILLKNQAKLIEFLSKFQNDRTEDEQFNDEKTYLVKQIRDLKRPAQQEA

CRTC3 = CRTC3 phosphorylation (immunoprecipitation, immunoblot); format: cell-based; settings: RAW264.7 macrophages, 1 h
Method: Cells were extracted in lysis buffer [50 mM Tris/HCl, pH 7.4, 1 mM EDTA, 1 mM EGTA, 50 mM NaF, 5 mM sodium pyrophosphate, 10 mM sodium β-glycerol 1-phosphate, 1 mM DTT, 1 mM sodium orthovanadate, 0.27 M sucrose, 1% (v/v) Triton X-100, 1 μg/ml aprotinin, 1 μg/ml leupeptin and 1 mM PMSF]. Cell extracts were clarified by centrifugation and protein concentrations were determined using the Bradford assay. To immunoprecipitate endogenous CRTC3, 1 mg of cell extract was incubated with 5 μg of anti-CRTC3 [13] covalently cross-linked on to Protein G–Sepharose. Immune complexes were washed three times with lysis buffer, eluted in 1% SDS and separated by SDS/PAGE. To detect proteins in cell lysates, 20 μg of protein extract was separated by SDS/PAGE. After transfer to PVDF membranes, proteins were detected by immunoblotting and visualized by treating the blots with ECL (GE Healthcare) followed by autoradiography.

TrkA = TrkA (Homo sapiens, UniProt P04629); assay: Kinase profiling; format: biochemical
Chain of TrkA (P04629 33-796): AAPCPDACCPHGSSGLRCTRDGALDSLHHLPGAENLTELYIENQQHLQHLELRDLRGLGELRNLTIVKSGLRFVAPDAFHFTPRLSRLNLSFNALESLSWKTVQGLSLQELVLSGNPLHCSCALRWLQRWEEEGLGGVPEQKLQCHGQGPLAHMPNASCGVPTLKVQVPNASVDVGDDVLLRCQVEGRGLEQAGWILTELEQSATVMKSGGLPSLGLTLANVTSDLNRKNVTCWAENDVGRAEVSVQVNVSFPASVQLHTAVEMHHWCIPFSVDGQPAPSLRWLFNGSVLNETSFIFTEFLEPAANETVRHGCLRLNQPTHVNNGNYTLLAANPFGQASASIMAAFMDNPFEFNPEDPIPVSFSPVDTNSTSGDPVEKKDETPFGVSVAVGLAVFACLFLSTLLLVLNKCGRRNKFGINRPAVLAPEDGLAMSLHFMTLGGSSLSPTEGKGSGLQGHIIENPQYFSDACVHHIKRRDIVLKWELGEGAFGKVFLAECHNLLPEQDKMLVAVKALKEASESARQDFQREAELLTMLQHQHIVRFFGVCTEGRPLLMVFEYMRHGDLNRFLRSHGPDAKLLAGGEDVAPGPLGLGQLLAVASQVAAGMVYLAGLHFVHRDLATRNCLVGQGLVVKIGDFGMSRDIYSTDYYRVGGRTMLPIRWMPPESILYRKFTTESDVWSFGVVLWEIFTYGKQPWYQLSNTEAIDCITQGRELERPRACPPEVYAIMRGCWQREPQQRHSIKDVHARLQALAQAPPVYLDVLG

EF2K = EF2K (Homo sapiens, UniProt O00418); assay: Kinase profiling; format: biochemical
[1] = tested on: RAW264.7 macrophages expressing HA-SIK2-WT; assay: IL-10 and Nurr77 mRNA in macrophages expressing wild-type SIK2; format: cell-based; settings: cells expressing wild-type SIK2; drug 1 h, LPS 1 h
Method: Primary macrophages were generated by differentiating bone marrow from 6- to 12-week-old C57BL/6 mice for 7 days in Dulbecco's modified Eagle's medium (DMEM) supplemented with 5 ng/ml recombinant M-CSF (R&D systems), 2 mM glutamine, 10% FBS, penicillin and streptomycin. Bone-marrow-derived macrophages were differentiated on non-tissue-culture-treated plastic, harvested and replated at a density of 100000 cells/cm^2 per 0.1 ml on tissue culture-treated plastic in fresh medium before stimulation on day 8. RAW264.7 cells were cultured in DMEM containing 10% FBS, 2 mM glutamine and penicillin and streptomycin. […] Cells were treated for 1 h with or without inhibitors and then stimulated for up to 24 h with either 1 μg/ml Pam3CSK4 or 100 ng/ml LPS.
mRNA was extracted from cells using the MicroElute Total RNA kit following the manufacturers’ instructions (Omega Bio-Tek). cDNA was generated from 0.5 μg of total RNA using the iScript cDNA synthesis kit and quantified by quantitative real-time PCR (qPCR) using the SsoFast EvaGreen Supermix on a CFX384 real-time system (Bio-Rad Laboratories). The relative expression of each gene was calculated from CT values using the Pfaffl method and was normalized against the mRNA levels of housekeeping genes including 18S RNA and GAPDH.

IKK epsilon = target: T2, IKK epsilon (Homo sapiens, UniProt Q14164); assay: Kinase profiling; format: biochemical
T2 sequence (Q14164 1-716): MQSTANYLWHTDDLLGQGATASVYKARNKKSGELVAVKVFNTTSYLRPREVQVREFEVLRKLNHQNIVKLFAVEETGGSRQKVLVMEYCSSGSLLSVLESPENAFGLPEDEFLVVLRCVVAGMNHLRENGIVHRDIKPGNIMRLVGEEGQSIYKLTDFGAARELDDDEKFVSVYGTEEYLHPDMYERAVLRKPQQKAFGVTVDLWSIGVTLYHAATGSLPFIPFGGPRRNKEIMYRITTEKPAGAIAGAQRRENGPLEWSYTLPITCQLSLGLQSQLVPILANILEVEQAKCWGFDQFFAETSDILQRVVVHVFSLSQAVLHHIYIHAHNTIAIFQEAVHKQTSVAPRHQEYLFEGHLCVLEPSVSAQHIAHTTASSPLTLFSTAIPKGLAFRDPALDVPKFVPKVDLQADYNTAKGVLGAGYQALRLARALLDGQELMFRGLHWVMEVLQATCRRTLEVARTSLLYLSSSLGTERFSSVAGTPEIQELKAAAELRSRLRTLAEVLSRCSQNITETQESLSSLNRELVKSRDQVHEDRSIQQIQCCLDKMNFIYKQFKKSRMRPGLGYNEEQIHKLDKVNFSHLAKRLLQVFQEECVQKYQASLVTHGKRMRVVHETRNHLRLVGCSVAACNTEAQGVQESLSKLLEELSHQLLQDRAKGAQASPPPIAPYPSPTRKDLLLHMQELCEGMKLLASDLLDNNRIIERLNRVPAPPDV

Chain of PDGFRA (P16234 24-1089): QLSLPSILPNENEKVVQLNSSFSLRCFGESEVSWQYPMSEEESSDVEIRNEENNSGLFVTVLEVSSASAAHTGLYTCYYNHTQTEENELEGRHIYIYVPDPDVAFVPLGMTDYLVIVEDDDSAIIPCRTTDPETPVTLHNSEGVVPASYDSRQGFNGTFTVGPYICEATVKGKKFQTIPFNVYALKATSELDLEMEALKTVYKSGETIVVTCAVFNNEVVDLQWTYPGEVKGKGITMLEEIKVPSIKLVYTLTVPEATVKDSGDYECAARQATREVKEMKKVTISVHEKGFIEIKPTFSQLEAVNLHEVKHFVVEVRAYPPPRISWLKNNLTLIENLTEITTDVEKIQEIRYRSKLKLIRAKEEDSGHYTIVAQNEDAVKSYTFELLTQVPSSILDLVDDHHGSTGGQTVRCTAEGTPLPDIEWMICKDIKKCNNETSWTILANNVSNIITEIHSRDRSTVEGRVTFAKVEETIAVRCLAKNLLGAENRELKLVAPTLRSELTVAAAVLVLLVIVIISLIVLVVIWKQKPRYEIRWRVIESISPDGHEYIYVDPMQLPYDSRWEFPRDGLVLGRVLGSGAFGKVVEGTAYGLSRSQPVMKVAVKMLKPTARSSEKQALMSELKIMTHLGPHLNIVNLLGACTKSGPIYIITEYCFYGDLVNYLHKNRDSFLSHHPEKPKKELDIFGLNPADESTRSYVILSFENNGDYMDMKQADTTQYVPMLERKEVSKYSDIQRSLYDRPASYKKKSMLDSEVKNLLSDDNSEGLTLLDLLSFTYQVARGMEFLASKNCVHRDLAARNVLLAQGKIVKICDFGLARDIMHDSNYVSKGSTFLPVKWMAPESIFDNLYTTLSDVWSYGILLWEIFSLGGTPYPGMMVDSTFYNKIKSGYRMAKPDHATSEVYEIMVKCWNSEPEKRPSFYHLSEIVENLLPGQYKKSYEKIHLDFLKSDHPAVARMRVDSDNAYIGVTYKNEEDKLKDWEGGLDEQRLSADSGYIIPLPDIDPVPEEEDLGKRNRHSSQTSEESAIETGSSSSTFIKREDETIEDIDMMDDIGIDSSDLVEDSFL
Chain of S6K1 (P23443 whole entry): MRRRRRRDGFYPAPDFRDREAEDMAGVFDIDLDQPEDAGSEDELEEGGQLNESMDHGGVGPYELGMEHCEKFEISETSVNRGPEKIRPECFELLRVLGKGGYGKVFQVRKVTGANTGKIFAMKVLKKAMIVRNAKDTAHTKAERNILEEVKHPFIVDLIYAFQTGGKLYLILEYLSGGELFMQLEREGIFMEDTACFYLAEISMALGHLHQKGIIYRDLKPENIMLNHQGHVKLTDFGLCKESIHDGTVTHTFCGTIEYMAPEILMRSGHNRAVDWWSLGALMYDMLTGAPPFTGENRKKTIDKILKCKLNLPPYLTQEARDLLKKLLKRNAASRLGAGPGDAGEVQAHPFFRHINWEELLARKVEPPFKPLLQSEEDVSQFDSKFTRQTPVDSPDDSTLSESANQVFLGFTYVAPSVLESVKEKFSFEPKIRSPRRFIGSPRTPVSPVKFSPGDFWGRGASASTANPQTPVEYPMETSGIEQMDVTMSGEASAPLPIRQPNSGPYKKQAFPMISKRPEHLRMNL

Compound | remaining activity at 0.1 µM (S6K1) | remaining activity at 1 µM (S6K1) | remaining activity at 0.1 µM (PDGFRA) | remaining activity at 1 µM (PDGFRA; 1 µM) | remaining activity at 0.1 µM (LKB1) | remaining activity at 1 µM (LKB1) | Phosphorylation of CRTC3 at Ser162 and Ser370 (CRTC3) | remaining activity at 0.1 µM (TrkA) | remaining activity at 1 µM (TrkA) | remaining activity at 0.1 µM (EF2K) | remaining activity at 1 µM (EF2K) | LPS-stimulated CREB-dependent gene transcription including IL-10 and Nurr77 [1] | remaining activity at 0.1 µM (IKK epsilon) | remaining activity at 1 µM (IKK epsilon)
COc1cc(Nc2c(C#N)cnc3cc(OCCCN4CCN(C)CC4)c(OC)cc23)c(Cl)cc1Cl [Bosutinib, bosutinib] | 98 ± 1% | 86 ± 2% | 96 ± 1% | 79% | 84 ± 13% | 104 ± 15% | dephosphorylation | 25 ± 2% | 7% | 81 ± 2% | 95 ± 6% | strongly potentiate | 46 ± 7% | 6%
Cc1nc(Nc2ncc(C(=O)Nc3c(C)cccc3Cl)s2)cc(N2CCN(CCO)CC2)n1 [Dasatinib] | 108 ± 3% | 113 ± 11% | 6 ± 1% | – | 96 ± 18% | 100 ± 14% | dephosphorylation | 107 ± 11% | 88 ± 2% | 104 ± 4% | 95 ± 5% | strongly potentiate | 102 ± 5% | 123 ± 13%
